Experiments:
Assay type in all cases: in vivo
[1] = test system: POLCO (Polygonum convolvulus); assay: Pre-emergence herbicidal effect against POLCO; details: 80 g/ha, scored visually after 3 weeks
Text: (§1) Seeds of monocotyledonous and dicotyledonous weed plants and crop plants are laid out in sandy loam soil in wood-fiber pots and covered with soil. The compounds of the invention, formulated in the form of wettable powders (WP) or as emulsion concentrates (EC), are then applied to the surface of the covering soil as aqueous suspension or emulsion at a water application rate equating to 600 to 800 l/ha with addition of 0.2% wetting agent. After the treatment, the pots are placed in a greenhouse and kept under good growth conditions for the trial plants. The damage to the test plants is scored visually after a test period of 3 weeks by comparison with untreated controls (herbicidal activity in percent (%): 100% activity=the plants have died, 0% activity=like control plants).

KCHSC (Kochia scoparia) [2] = assay: Post-emergence herbicidal action against KCHSC; details: visual assessment after about 3 weeks
Description: (§2) Seeds of monocotyledonous and dicotyledonous weed and crop plants are laid out in sandy loam soil in wood-fiber pots, covered with soil and cultivated in a greenhouse under good growth conditions. 2 to 3 weeks after sowing, the trial plants are treated at the one-leaf stage. The compounds of the invention, formulated in the form of wettable powders (WP) or as emulsion concentrates (EC), are then sprayed onto the green parts of the plants as aqueous suspension or emulsion at a water application rate equating to 600 to 800 l/ha with addition of 0.2% wetting agent. After the test plants have been left to stand in the greenhouse under optimal growth conditions for about 3 weeks, the action of the preparations is assessed visually in comparison to untreated controls (herbicidal action in percent (%): 100% activity=the plants have died, 0% activity=like control plants).

KCHSC (Kochia scoparia) [3] = assay: Pre-emergence herbicidal effect against KCHSC; details: scored visually after 3 weeks
Text: as §1

[4] = test system: AMARE (Amaranthus retroflexus); assay: Pre-emergence herbicidal effect against AMARE; details: scored visually after 3 weeks
Text: as §1

[5] = test system: AMARE (Amaranthus retroflexus); assay: Post-emergence herbicidal action against AMARE; details: visual assessment after about 3 weeks
Description: as §2

SETVI (Setaria viridis) [6] = assay: Pre-emergence herbicidal effect against SETVI; details: 80 g/ha, scored visually after 3 weeks
Text: as §1

[7] = test system: DIGSA (Digitaria sanguinalis); assay: Post-emergence herbicidal action against DIGSA; details: visual assessment after about 3 weeks
Description: as §2

VIOTR (Viola tricolor) [8] = assay: Pre-emergence herbicidal effect against VIOTR; details: scored visually after 3 weeks
Text: as §1

[9] = test system: ABUTH (Abutylon threophrasti); assay: Post-emergence herbicidal action against ABUTH; details: 80 g/ha, visual assessment after about 3 weeks
Description: as §2

[10] = test system: DIGSA (Digitaria sanguinalis); assay: Pre-emergence herbicidal effect against DIGSA; details: scored visually after 3 weeks
Text: as §1

VIOTR (Viola tricolor) [11] = assay: Post-emergence herbicidal action against VIOTR; details: visual assessment after about 3 weeks
Description: as §2

[12] = test system: ABUTH (Abutylon threophrasti); assay: Pre-emergence herbicidal effect against ABUTH; details: 80 g/ha, scored visually after 3 weeks
Text: as §1

SETVI (Setaria viridis) [13] = assay: Post-emergence herbicidal action against SETVI; details: visual assessment after about 3 weeks
Description: as §2

[14] = test system: ECHCG (Echinochloa crus-galli); assay: Pre-emergence herbicidal effect against ECHCG; details: 80 g/ha, scored visually after 3 weeks
Text: as §1

CSc1c(OC(F)F)ccc(C(=O)Nc2nnco2)c1Cl [Example 1-21, 2-chloro-4-(difluoromethoxy)-3-(methylsulfanyl)-N-(1,3,4-oxadiazol-2-yl)benzamide]
Pre-emergence effect at 80 g/ha against POLCO in % [1]: 100% | Post-emergence effect at 20 g/ha against KCHSC in % (KCHSC (Kochia scoparia) [2]; 20 g/ha): 90% | Post-emergence effect at 80 g/ha against KCHSC in % (KCHSC (Kochia scoparia) [2]; 80 g/ha): 100% | Pre-emergence effect at 20 g/ha against KCHSC in % (KCHSC (Kochia scoparia) [3]; 20 g/ha): 90% | Pre-emergence effect at 80 g/ha against KCHSC in % (KCHSC (Kochia scoparia) [3]; 80 g/ha): 90% | Pre-emergence effect at 20 g/ha against AMARE in % ([4]; 20 g/ha): 90% | Pre-emergence effect at 80 g/ha against AMARE in % ([4]; 80 g/ha): 100% | Post-emergence effect at 20 g/ha against AMARE in % ([5]; 20 g/ha): 100% | Post-emergence effect at 80 g/ha against AMARE in % ([5]; 80 g/ha): 100% | Pre-emergence effect at 80 g/ha against SETVI in % (SETVI (Setaria viridis) [6]): 90% | Post-emergence effect at 20 g/ha against DIGSA in % ([7]; 20 g/ha): 90% | Post-emergence effect at 80 g/ha against DIGSA in % ([7]; 80 g/ha): 90% | Pre-emergence effect at 20 g/ha against VIOTR in % (VIOTR (Viola tricolor) [8]; 20 g/ha): 100% | Pre-emergence effect at 80 g/ha against VIOTR in % (VIOTR (Viola tricolor) [8]; 80 g/ha): 100% | Post-emergence effect at 80 g/ha against ABUTH in % [9]: 80% | Pre-emergence effect at 20 g/ha against DIGSA in % ([10]; 20 g/ha): 90% | Pre-emergence effect at 80 g/ha against DIGSA in % ([10]; 80 g/ha): 100% | Post-emergence effect at 20 g/ha against VIOTR in % (VIOTR (Viola tricolor) [11]; 20 g/ha): 100% | Post-emergence effect at 80 g/ha against VIOTR in % (VIOTR (Viola tricolor) [11]; 80 g/ha): 100% | Pre-emergence effect at 80 g/ha against ABUTH in % [12]: 100% | Post-emergence effect at 20 g/ha against SETVI in % (SETVI (Setaria viridis) [13]; 20 g/ha): 80% | Post-emergence effect at 80 g/ha against SETVI in % (SETVI (Setaria viridis) [13]; 80 g/ha): 100% | Pre-emergence effect at 80 g/ha against ECHCG in % [14]: 100%

— patent US20240287007A1, “N-(1,3,4-OXADIAZOL-2-YL)PHENYLCARBOXAMIDES AS HERBICIDES” (BAYER AKTIENGESELLSCHAFT, priority 2021, published 2024)
